Data: patent US20150126597A1, “GENISTEIN CANCER TREATMENT REGIMEN MAXIMIZING CANCER RADIATION THERAPY BENEFITS” (Humanetics Corporation, priority 2013, published 2015)

Legend:
[1] = tested on: uterus, GI tract, esophagus, skin, tumor, lungs; test: Example 1: post mortem tissue weights and histopathology (safety); format: in vivo, mouse; details: Example 1, 10 weeks dosing 5 d/wk
Procedure: At the time of euthanasia organs were harvested and wet tissue weights were measured. In addition to the tissues the weight of the remaining tumor was determined so that the tumor weight can be correlated with the calculated tumor volumes.
The various tissues were fixed in formalin, then processed and embedded in paraffin. Hematoxylin and eosin (H&E) staining was done on 5 micron sections from each of the tissues.
Following euthanasia organ weights were collected for the lungs, uterus, and GI tract. In addition, the tumor was resected and weighed. […]
The examined tissues included the lungs, GI tract (esophagus), uterus, tumor, and the skin near the A549 tumor xenograft. […] All tissues were analyzed microscopically following H&E staining. For these analyses 5 tumors, 5 lung samples, and 5 skin samples were analyzed from each experimental group. In addition, three uterus samples and three esophagus samples from each experimental group were analyzed. All tissue samples were prepared, sectioned, and stained with H&E. Tissues were analyzed for gross morphology and H&E sections were evaluated for inflammatory cells, capillary distension, and congestion. A veterinary pathologist scored the severity and distribution of anomalies observed. […]

[2] = cited from earlier work
[3] = Genistein provided as a nano suspension in accordance with US 2012/0164190 and 2012/0121654; cited from earlier work

O=c1c(-c2ccc(O)cc2)coc2cc(O)cc(O)c12 [Genistein, 5,7-dihydroxy-3-(4-hydroxyphenyl)-chromen-4-one]
Uterus wet weight [1]: did not dramatically affect the wet uterine weights | Solubility in water [2]: virtually insoluble in water | Oral bioavailability [3]: significantly improved oral bioavailability
